Experiments:
[1] = target: T1, Recombinant human pro-MMP-9 (Homo sapiens, UniProt P14780); test: MMP Assay Kit (5-FAM/QXL520 FRET peptide) for MMP-9 bioactivity; format: biochemical; conditions: final concentration of PAN-811 1 mM, calcium 0.4 mM, 30 min room temperature
T1 construct: purchased AnaSpec 72009
From the text: The principle behind this analysis is as follows. A 5-FAM/QXL™520 fluorescence resonance energy transfer (FRET) peptide is used as a substrate for MMP. The fluorescence of 5-FAM is quenched by QXL™520 in intact FRET peptide. However, upon cleavage of FRET into two separate fragments by MMP, in the presence of Ca^2+, the fluorescence of 5-FAM is recovered, and can be monitored at excitation/emission wavelengths of […]/520 nm with a fluorometer. Thus, an inhibitor of MMP-9 could suppress the cleavage of FRET by MMP-9 and decrease the fluorescence intensity of 5-FAM. To test the effect of PAN-811 on the bioactivity of MMP-9, black 96-well plates (Cat #3603, Costar®), Corning Inc.) were pre-warmed at 37° C. 4-aminophenylmercuric acetate (APMA) was diluted 20-fold with assay buffer (both in MMP assay kit) to a final concentration of […]. Recombinant human pro-MMP-9 (10 μg/ml, Cat #72009, AnaSpec, San Jose) was pre-incubated with 1 mM APMA at 37° C. for 2 hours to activate this enzyme. […] Treated wells were incubated at room temperature for 30 min and the fluorescence intensity of 5-FAM was determined for each sample by measurement at excitation/emission wavelengths of 485 nm/520 nm with a fluorometer and reported in RFU (FIGS. 6A and 6B). […]

[2] = system: Middle Cerebral Artery Occlusion (MCAo) rats; test: Middle cerebral artery occlusion (MCAo) rat model: infarct volume, edema volume, premature mortality; format: in vivo, male Sprague-Dawley rats
Experimental: For Middle Cerebral Artery Occlusion (MCAo), male Sprague-Dawley rats (270 to 330 g) were anesthetized with gaseous isoflurane. With aseptic surgical techniques, a laser-Doppler probe was placed on the right temporal-lateral portion of the skull over a region of the cortex which is supplied by the middle cerebral artery to record cerebral blood flow (CBF). CBF was recorded before and after arterial occlusion. The bifurcation of the right external common carotid 8 artery (ECA) and internal common carotid artery (ICA) was surgically exposed. A 4-0 monofilament suture treated with a silicone coating to enlarge the tip to better achieve an arterial block was placed into the ECA stump, and advanced up the ICA approximately 20 mm until a drop in CBF of approximately 75% or greater was measured by laser Doppler flowmetry (PeriFlux PF5010, Perimed). The duration of the ischemia was 120 minutes.
PAN-811 was originally dissolved to a concentration of 25.6 mmol/L in 7% (v/v) polyethylene glycol (PEG) 300, 3% ethanol (EtOH), 28.6 mmol/L citric acid and 5.7 mmol/L L-ascorbic acid solution. 25.6 mmol/L was the highest concentration of PAN-811 used for dosing. This solution was further diluted with normal saline to produce dosing solutions of 2.56 mmol/L, 5.12 mmol/L, and 10.2 mmol/L on the day of surgery. Vehicle dosing solutions were identical in components to the 5.12 mmol/L PAN-811 group (Vehicle Low), or the 10.2 mmol/L group (Vehicle High). These treatments were delivered intravenously route into MCAo rats at reperfusion time. […]
After 22 hours of treatment, the animals were sacrificed by CO2 asphyxiation, and their brains sectioned at 2 mm intervals. […] Brain areas were traced and measured using a computerized image analysis system (SimplePCI Version 4.0.0, Compix Inc) to determine infarct volume (in cubic millimeters, mm^3), whereby unstained areas were defined as ischemic lesions of infarcted tissue.
Ischemic stroke often results in brain edema (Ayata et al., 2002). Therefore, the volumes for both ipsilateral and contralateral side hemispheres of MCAo rats were measured 22 hours later, and the edema volumes (hemisphere volume of the ipsilateral side hemisphere volume of contralateral one) were calculated, and expressed as mean±SEM (FIG. 1B). […]
Brain edema can result in death of MCAo rats. Therefore, the mortalities for vehicle groups and PAN-811 treated groups, as explained in Examples 1 and 2, were counted (FIG. 1C). Mortalities of general vehicle treated groups (open bar) and collective PAN-811 treated groups (black bar) were determined and premature death rates were expressed as percentage of total animal number in each condition. […]

T1 sequence (P14780 107-707 limits assumed): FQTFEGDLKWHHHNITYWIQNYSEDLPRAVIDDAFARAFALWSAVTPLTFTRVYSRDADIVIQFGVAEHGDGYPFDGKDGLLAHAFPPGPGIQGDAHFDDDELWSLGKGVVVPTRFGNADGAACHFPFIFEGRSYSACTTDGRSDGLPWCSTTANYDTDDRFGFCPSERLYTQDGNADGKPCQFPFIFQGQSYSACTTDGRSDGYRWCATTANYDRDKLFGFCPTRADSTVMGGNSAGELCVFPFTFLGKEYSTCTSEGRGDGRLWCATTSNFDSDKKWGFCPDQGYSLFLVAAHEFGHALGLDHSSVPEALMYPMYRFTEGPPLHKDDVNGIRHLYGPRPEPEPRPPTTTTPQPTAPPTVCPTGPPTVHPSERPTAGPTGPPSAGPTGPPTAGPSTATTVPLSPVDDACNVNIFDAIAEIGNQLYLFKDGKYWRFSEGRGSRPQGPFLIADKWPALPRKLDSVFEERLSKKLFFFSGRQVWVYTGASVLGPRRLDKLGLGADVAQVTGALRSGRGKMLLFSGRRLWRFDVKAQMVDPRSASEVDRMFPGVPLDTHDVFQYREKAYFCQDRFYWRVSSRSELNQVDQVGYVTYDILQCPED

In the case of `NC(=S)N/N=C/c1ncccc1N` [PAN-811, 3-aminopyridine-2-carboxaldehyde thiosemicarbazone], the “suppression of pro-MMP-9-catalyzed increase in fluorescence intensity” value [1] is reported as 64%, the “reduction in edema volume” value ([2]; 2 mg/kg i.v., compared to the high vehicle group, 22 hours) is reported as 70% and the “reduction in edema volume” value ([2]; 5 mg/kg i.v., compared with High vehicle group, 22 hours (data not shown)) is reported as 31%. The premature mortality rate ([2]; all PAN-811 treated groups (9 of 57), vehicle groups 28%) was 15.8% and the “reduction of premature mortality” value ([2]; all PAN-811 treated groups versus the 2 vehicle-treated groups) was 44%.

— patent publication US20090286799A1, “METHODS FOR THE TREATMENT OF BRAIN EDEMA” (priority 2008, published 2009)
